According to a melting point compilation (Tetko et al.; mined from patent text by program, amines drawn as free bases though some values may be those of a salt):

| melting point [°C] | Structure (SMILES) |
| --- | --- |
| 141 to 143 | CC(=O)Nc1cc(C(O)CN(Cc2ccccc2)C(C)Cc2ccc(O)cc2)ccc1OCc1ccccc1 (configuration not stated) |
| 125 to 128 | COc1ccc2c(c1)CCC1CCNC(=O)C(CCN3CCCCC3)=C21 (configuration not stated) |
| 134 to 135 | CCCCCCC1=C(Br)C(O)(CO)NC1=O (configuration not stated) |
| 122 to 124 | COC(=O)CNC(=O)c1cccc(NC(=O)CCl)c1 |
| 168 | O=C(NC(=S)c1c(Cl)cccc1Cl)Nc1ccc(Cl)c(Cl)c1 |
| 254 to 258 | N#CCOc1nsc2ccc(-n3c(=O)cc(C(F)(F)F)[nH]c3=O)cc12 |
| 200 to 202 | O=C(Nc1ccc([N+](=O)[O-])cc1)c1ccccc1Br |
| 102 to 104 | O=C(CCl)c1ccc(-c2ccc(SC(F)F)cc2)cc1 |
| 99.5 to 101 | CCCCNCc1cccc(OCCCNc2nc(N)nn2C)c1 |
| 199 to 201 | Cc1nn(-c2cc3nc(S(C)=O)sc3cc2F)c(=O)n1C (configuration not stated) |
| 174 to 175 | CCOC(=O)C1=C[C@H](NC(=O)OC(C)(C)C)[C@@H](NC(C)=O)[C@@H]2OC(C)(C)O[C@H]12 |
| 208 to 210 | O=C(Nc1nc2ccccc2nc1Oc1ccccc1)N1CCN(C(c2ccccc2)c2ccccc2)CC1 |
| 218 to 219 | COC(=O)Nc1cn2nc(OCc3cc(OC)c(OC)c(OC)c3Br)ccc2n1 |
| 138 | N#Cc1ccc(N=Nc2ccc(OCCO)c(C#N)c2)cc1 |
| 111 to 112 | CC(C)Cn1c(=O)n(C)c(=O)c2c(OCCCO)c(Cc3cccnc3)sc21 |
| 236 to 238 | CC1(C)CC(=O)c2c(nc(C3CCCC3)c(C(=O)c3ccc(C(F)(F)F)cc3)c2-c2ccsc2)C1 |
| 210 to 215 | CC12CCC3c4ccc(C(=O)O)cc4CCC3C1CCC2C(=O)c1ccccc1 (configuration not stated) |
| 200 to 202 | CCn1ccc(=O)c2cnc(-c3ccncc3)nc21 |
| 115 to 116 | Oc1nn(-c2ccccn2)c(-c2ccccc2)c1Cc1ccccc1 |
| 273 to 274 | CCCn1c(=O)c2[nH]c(/C=C/c3ccc(OC)cc3OC)nc2n(CCC)c1=O |
| 103 to 110 | O=C(c1ccccc1SSc1ccccc1C(=O)N1CCOCC1)N1CCOCC1 |
| 197 | Cc1ccc2c(Sc3cc(Cl)cc(Cl)c3)c(CC(N)=O)[nH]c2c1 |
| 265 to 266 | COc1ccc2c(=O)c(C(N)=O)c(N)oc2c1 |

| melting point [°C] | Structure (SMILES) |
| --- | --- |
| 152 | COc1ccc(-c2nc(Oc3ccc(C)cc3)ncc2C(=O)N2CCOCC2)cc1OC |
| 38 to 40 | CC(C)(C)C=C[C@H](O)c1ccc(F)cc1 |
| 145 to 146 | CN1C(=O)CCC2(C)c3ccc(C(c4ccccc4)c4ccccc4)cc3CCC12 (configuration not stated) |
| 111 to 112 | CCOCC(O)COc1ccc(NC(=O)CCS(C)(=O)=O)cc1 (configuration not stated) |
| 265 | CCOC(=O)C1=C(C)NC(C)=C(C#N)C1c1ccnc2ncc(-c3ccccc3)cc12 (configuration not stated) |
| 153 to 158 | O=C(O)C=CC(=O)c1ccccc1[N+](=O)[O-] |
| 204 | CC(C)(C)OC(=O)N1Cc2c(-c3noc(C4CC4)n3)ncn2-c2ccccc21 |
| 127 to 129 | CCOC(=O)COc1cc(F)c(-c2ncnc(C(F)(F)F)c2Cl)cc1[N+](=O)[O-] |
| > 300 | CN1CC(Oc2ccc(Nc3cc(-c4cccc(-n5ncc6cc(C(C)(C)C)cc(F)c6c5=O)c4CO)cn(C)c3=O)nc2)C1 |
| 234 to 236 | Fc1ccc(-c2nc[nH]c2-c2ccc(F)cc2)cc1 |
| 199 to 202 | CCOC(=O)c1c(Nc2cccc3ccccc23)n[nH]c1C |
| 86 | CCCCCCn1c(-c2ccc(Cl)c(S(=O)(=O)N(C)C)c2)csc1=Nc1ccccc1 |
| 65 to 70 | CC(C)C(NC(=O)Nc1ccc(C(=O)NCC(=O)OCc2ccccc2)cc1)C(=O)N1CCCC1C(=O)NC(C(=O)C(F)(F)F)C(C)C (mixture of isomers) |
| 197 to 200 | N#Cc1c(Sc2ncc([N+](=O)[O-])s2)nsc1Sc1ncc([N+](=O)[O-])s1 |
| 191 | O=[N+]([O-])c1cnccc1NCCN1CCC(Nc2nc3ccccc3n2Cc2ccc(CO)o2)CC1 |
| 200 to 201 | c1ccc(Cc2nc(C3CCCCC3)oc2CN2CCc3c([nH]c4ccccc34)C2)cc1 |
| 57 to 58 | COC1(c2cccc(OCc3ccc4ccccc4c3)c2)CCCOCC1 (configuration not stated) |
| 80 to 82 | CCOC(=O)c1cnn(-c2c(Cl)cc(C(F)(F)F)cc2Cl)c1Br |
| 129 to 131 | CN1CC(c2ccc(S(C)(=O)=O)cc2)=C(c2ccc(Cl)cc2)C1=O |
| 198 to 200 | Cc1ccccc1CC(=O)Nc1ccc(C(=O)N2Cc3cccn3Cc3ccccc32)cc1 |
| 157 | Cc1c(C(F)(F)F)ncn(-c2cc([N+](=O)[O-])c(F)cc2F)c1=O |
| 109 to 110 | CCOCCOC(=O)C(=O)Nc1nc(-c2ccccc2)cs1 |
| 274 | COc1ccc(N=Nc2ccc(O)c(C(=O)Nc3ccc4[nH]cnc4c3)c2)cc1 |

| melting point [°C] | Structure (SMILES) |
| --- | --- |
| 144 to 145 | COCCOc1ccc2c(Nc3ccc(Cl)cc3Cl)c(C#N)cnc2c1 |
| 178 to 179 | O=c1c(O)coc2ccccc12 |
| 177 to 178 | COc1ccc2cccc(N3CCN(CCC4CC(=O)Nc5ccccc54)CC3)c2c1 (configuration not stated) |
| 98 to 100 | CC(C)Cc1sc(-c2nccs2)c2c1C(=O)CC(C)(C)C2 |
| 251 | Cc1ccc(S(=O)(=O)Nc2cc3c(c(C(=O)O)c2)NCCC3)cc1 |
| 78 to 80 | O=C(Cl)N1CC(Oc2ccc(Cl)cc2)C1 |
| 190 to 192 | CCCCCCCN(Cc1ccc(C(C)(C)C)cc1)C(Nc1ccc(-c2ccccc2)cc1)=C1C(=O)COC1=O |
| 79 to 81 | CN1C(=O)COc2cc3c(cc21)C1(CO3)C(=O)N(CC2CCCO2)c2ccccc21 (configuration not stated) |
| 222 | Cc1c(C=CC(=O)O)cccc1[N+](=O)[O-] |
| 52 to 53 | C=CC(C)=CC=CC(C)=CC(=O)OCC |
| 78 to 81 | C[Si](C)(C)c1[nH]c2ccccc2c1C1CC1 |
| 89 | CCCN(c1nc(-c2ccc(OC)cc2Cl)c(C)s1)c1cc(N)ccc1OC |
| 245 to 248 | O=C(Nc1ccc(-c2ccc(C(=O)O)cc2)cc1)OCC1c2ccccc2-c2ccccc21 |
| 210 to 214 | O=C1NC(N2CCN(c3ccncc3)CC2)c2ccccc21 (configuration not stated) |
| 67 to 69 | CCc1noc(-c2cn(-c3cc(OC)ccc3Cl)cn2)n1 |
| 78.1 to 79.9 | COCCc1nc2c(N)nc3ccccc3c2n1CCCCNC(=O)c1ccc2ccccc2n1 |
| 160 to 162 | O=C(O)CCCc1ccc(C(NS(=O)(=O)c2ccc(Cl)cc2)C2CCCC2)cc1 (single isomer, unassigned; (-)) |
| 156 to 158 | CC(C)(C)OC(=O)NC1CCc2ccccc2C(=Cc2ccccc2)C1=O (configuration not stated) |
| 172 to 174 | O=[N+]([O-])c1cccc2cncc(Br)c12 |
| 281 to 282 | Cc1nc(N)[nH]c(=O)c1N1CCN(c2ccc(CN)cc2)CC1 |
| 102 to 104 | COc1ccoc1C1OC(=O)NC1=O (configuration not stated) |
| 95 | Fc1ccccc1N1CCN(CCCCNc2ccc(-c3ccccc3)cn2)CC1 |
| 120 to 121 | CCCCCCCCCCCCc1nnc(C(C(=O)Nc2c(OC)cc(OC)cc2OC)c2ccccc2)o1 (configuration not stated) |

| melting point [°C] | Structure (SMILES) |
| --- | --- |
| 132 to 133 | CNC(=S)Nc1cc(SC)ccc1N1CCOCC1 |
| 58 to 67 | COC(=O)CC(NC(C)=O)c1ccccc1 (configuration not stated) |
| 231 to 234 | CC(C)OC(=O)c1cc(-n2c(=O)[nH]c3c(c2=O)CCC3)c(F)cc1F |
| 129 to 130 | COC(=O)C(=Cc1cc(OC)c(OC)cc1Br)c1ccccc1C(=O)O |
| 107 to 111 | CC1Cc2cc(NC(=O)OCc3ccccc3)ccc2N1C(=O)OCc1ccccc1 (configuration not stated) |
| > 300 | O=C(O)c1c2c(nc3ccc(F)cc13)-c1ccc(-c3cccs3)cc1CCC2 |
| 254 | ON=c1c2nccc3cccc(c32)n2cccc12 |
| 71 to 72 | CCN1CCN(c2ccc(C(=O)NCCCCCCCCCCCCO[N+](=O)[O-])cn2)CC1 |
| 258 to 260 | Clc1cc(Cl)c2oc(-c3ccc(C=Cc4ccc(-c5ccccc5)cc4)cc3)cc2c1 |
| 164 to 166 | C=Cc1c(C(=O)O)nc(Cl)c(F)c1N |
| 95 to 97 | CCOC(=O)c1sc(=O)[nH]c1C(F)(F)C(F)(F)F |
| 220 to 221 | O=C(O)Cc1ccc(NC(=O)C(COc2cccc(Cl)c2)NS(=O)(=O)c2ccc(Cl)cc2)cc1 (racemic) |
| 176 to 179 | O=C(C#Cc1ccc(C(F)(F)F)cc1Cl)Nc1ccc2nc(N3CCCCC3)ccc2c1 |
| > 250 | Cc1ccc2c(N3CCN(C)C3=O)ccnc2c1NC(=O)c1c(Cl)cccc1Cl |
| 128 to 129 | CC(=O)OCC(=O)C1=CCC2C3CCC4=CC(=O)CCC4(C)C3=CCC12C (configuration not stated) |
| 239 to 240 | O=C1Nc2cccnc2N(C(=O)Cl)c2ccccc21 |
| 76 to 78 | CN(C(=O)CBr)n1cccc1C(=O)c1ccccc1 |
| 281 | Cc1cc(-c2cnn3c(C(F)(F)F)cc(-c4ccc(Cl)c(Cl)c4)nc23)cc(C)n1 |
| 120 to 124 | CCOC(=O)c1c(C)nn2c(-c3ccc(Cl)cc3Cl)c(C)ccc12 |
| 148 to 150 | CCNC(=O)NNC=NC(=O)c1nc(Cl)c(NC(C)C)nc1N |
| 158 to 160 | CN1C(=O)C(C)(c2ccc(O)cc2)Sc2ccccc21 (configuration not stated) |
| 248 to 249 | CC(C)(C)c1cc(/C=C/c2n[nH]c(=S)s2)cc(C(C)(C)C)c1O |

| Structure (SMILES) | melting point [°C] |
| --- | --- |
| CN1C(=O)C(C(=O)Nc2ccc(Oc3nnc(C(C)(C)C)o3)cc2)C(=O)N(C)C1=O | 200 to 203 |
| CC(C)CCN1C(=O)C(NC(=O)Oc2cccc(N(C)C)c2)C(=O)N(c2ccccc2)c2cc(F)ccc21 (configuration not stated) | 229 to 230 |
| COC1=CC2SC2C2(OC)SC12OC (configuration not stated) | 143 to 144 |
| COc1ccc2nc(N3CCNCC3)ccc2c1 | 95 to 97 |
| CCP(=S)(CC)OC(=O)/C=N\OCc1csc(N)n1 | 87 to 88 |
| CC(=O)OC1(C(C)CN(C)C)CCCCC1c1ccccc1 (single isomer, unassigned; (-)) | 63 to 66 |
